Assay results as given in patent US10376520B2, “Methods for the treatment of cardiovascular disorders” (Galapagos NV, priority 2015, dated 2019).

Legend:
RA patients [1] = test: CRP analysis (immunoturbidimetric assay), Study 1; assay type: in vivo, human
Description: Double-blind, placebo-controlled add on study in subjects with moderately to severely active RA who have an inadequate response to methotrexate (MTX) (oral or parenteral).
Compound 1 (dosed as a [Compound 1:HCl:3H2O]) is dosed for twelve weeks once daily (q.d.) (50 mg, 100 mg or 200 mg) or twice daily (b.i.d.) (25 mg, 50 mg or 100 mg); or placebo.
At Week 12, the subjects on placebo who have not achieved 20% improvement in swollen joint count (SJC66) and tender joint count (TJC68) are re-randomized automatically to receive Compound 1 (dosed as a [Compound 1:HCl:3H2O]) either at 100 mg q.d. or 50 mg b.i.d. doses in a blinded fashion; subjects on 50 mg q.d. who have not achieved 20% improvement in SJC66 and TJC68 will be assigned to 100 mg q.d. and subjects on 25 mg b.i.d. that have not achieved a 20% improvement in SJC66 and TJC68 will be assigned to 50 mg b.i.d. Subjects who switch treatment at week 12 are handled as if they discontinued at week 12 for the purpose of statistical analysis, whereas subjects in the other groups will maintain their randomized treatment until Week 24.
(§1) The determination of CRP is made using Immunoturbidimetric assay for the in vitro quantitative determination of CRP in human serum and plasma on Roche/Hitachi cobas c systems, wherein human CRP agglutinates with latex particles coated with monoclonal anti-CRP antibodies. The aggregates are determined turbidimetrically (Eda et al., 1998; Price et al., 1987).
(§2) Human serum and plasma samples [CRP] determination was done on a Roche/Hitachi Cobas c 301 c 501/502 system which automatically calculate the analyte concentration of each sample. Samples containing precipitates are centrifuged before performing the assay.
The Hommel-corrected p-value for the pairwise comparisons of each group with placebo is shown.
The number of subjects (N) provided in each groups corresponds to the number of patients starting the study in each group, and the ACR data reported below corresponds to the responding patients continuing for the entire 24 weeks on their initial treatment course.

RA patients [2] = test: CRP analysis (immunoturbidimetric assay), Study 2; assay type: in vivo, human; settings: 50 mg q.d.
Description: Double-blind, placebo-controlled, monotherapy study in subjects with moderately to severely active RA who have an inadequate response to methotrexate (MTX) (oral or parenteral).
Twelve weeks of treatment with Compound 1 (dosed as a [Compound 1:HCl:3H2O]) at 50 mg, 100 mg, or 200 mg q.d.; or placebo. At Week 12, all subjects on placebo and the subjects on the 50 mg dose who have not achieved 20% improvement in swollen joint count (SJC66) and tender joint count (TJC68) will be assigned to 100 mg q.d. in a blinded fashion and will continue treatment until Week 24. Subjects in the other groups will maintain their randomized treatment until Week 24.
as §1, §2
The Hommel-corrected p-value for the pairwise comparisons of each group with placebo is shown. […]

## O=C(Nc1nc2cccc(-c3ccc(CN4CCS(=O)(=O)CC4)cc3)n2n1)C1CC1 [Compound 1, cyclopropanecarboxylic acid {5-[4-(1,1-dioxo-thiomorpholin-4-ylmethyl)-phenyl]-[1,2,4]triazolo[1,5-a]pyridin-2yl}-amide]
RA patients [1]; 50 mg q.d., week 1
  CRP mean CFB (LOCF) - 24 weeks results: -7.95 mg/L
RA patients [1]; 50 mg q.d., week 2
  CRP mean CFB (LOCF) - 24 weeks results: -8.23 mg/L
RA patients [1]; 50 mg q.d., week 4
  CRP mean CFB (LOCF) - 24 weeks results: -10.18 mg/L
RA patients [1]; 50 mg q.d., week 8
  CRP mean CFB (LOCF) - CRP variation: -12.02 mg/L
RA patients [1]; 50 mg q.d., week 12
  CRP mean CFB (LOCF) - 24 weeks results: -13.15 mg/L
RA patients [1]; 100 mg q.d., week 1
  CRP mean CFB (LOCF) - 24 weeks results: -11.02 mg/L
RA patients [1]; 100 mg q.d., week 2
  CRP mean CFB (LOCF) - 24 weeks results: -12.94 mg/L
RA patients [1]; 100 mg q.d., week 4
  CRP mean CFB (LOCF) - 24 weeks results: -13.18 mg/L
RA patients [1]; 100 mg q.d., week 8
  CRP mean CFB (LOCF) - 24 weeks results: -12.48 mg/L
RA patients [1]; 100 mg q.d., week 12
  CRP mean CFB (LOCF) - 24 weeks results: -13.57 mg/L
RA patients [1]; 200 mg q.d., week 1
  CRP mean CFB (LOCF) - 24 weeks results: -17.06 mg/L
RA patients [1]; 200 mg q.d., week 2
  CRP mean CFB (LOCF) - 24 weeks results: -17.51 mg/L
RA patients [1]; 200 mg q.d., week 4
  CRP mean CFB (LOCF) - 24 weeks results: -17.94 mg/L
RA patients [1]; 200 mg q.d., week 8
  CRP mean CFB (LOCF) - 24 weeks results: -17.22 mg/L
RA patients [1]; 200 mg q.d., week 12
  CRP mean CFB (LOCF) - 24 weeks results: -17.24 mg/L
RA patients [1]; 2 × 25 mg b.i.d., Week 1
  CRP mean CFB (LOCF) - 24 weeks results: -8.47 mg/L
RA patients [1]; 2 × 25 mg b.i.d., Week 2
  CRP mean CFB (LOCF) - 24 weeks results: -10.06 mg/L
RA patients [1]; 2 × 25 mg b.i.d., Week 4
  CRP mean CFB (LOCF) - 24 weeks results: -7.72 mg/L
RA patients [1]; 2 × 25 mg b.i.d., Week 8
  CRP mean CFB (LOCF) - 24 weeks results: -10.94 mg/L
RA patients [1]; 2 × 25 mg b.i.d., Week 12
  CRP mean CFB (LOCF) - 24 weeks results: -10.26 mg/L
RA patients [1]; 2 × 25 mg b.i.d., Week 20
  CRP mean CFB (LOCF) - 24 weeks results: -12.20 mg/L
RA patients [1]; 2 × 50 mg b.i.d., Week 1
  CRP mean CFB (LOCF) - 24 weeks results: -10.08 mg/L
RA patients [1]; 2 × 50 mg b.i.d., Week 2
  CRP mean CFB (LOCF) - 24 weeks results: -11.03 mg/L
RA patients [1]; 2 × 50 mg b.i.d., Week 4
  CRP mean CFB (LOCF) - 24 weeks results: -13.28 mg/L
RA patients [1]; 2 × 50 mg b.i.d., Week 8
  CRP mean CFB (LOCF) - 24 weeks results: -13.25 mg/L
RA patients [1]; 2 × 50 mg b.i.d., Week 12
  CRP mean CFB (LOCF) - 24 weeks results: -12.97 mg/L
RA patients [1]; 2 × 100 mg b.i.d., Week 1
  CRP mean CFB (LOCF) - 24 weeks results: -17.39 mg/L
RA patients [1]; 2 × 100 mg b.i.d., Week 2
  CRP mean CFB (LOCF) - 24 weeks results: -19.69 mg/L
RA patients [1]; 2 × 100 mg b.i.d., Week 4
  CRP mean CFB (LOCF) - 24 weeks results: -20.64 mg/L
RA patients [1]; 2 × 100 mg b.i.d., Week 8
  CRP mean CFB (LOCF) - 24 weeks results: -21.32 mg/L
RA patients [1]; 2 × 100 mg b.i.d., Week 12
  CRP mean CFB (LOCF) - 24 weeks results: -20.54 mg/L
RA patients [1]; 2 × 100 mg b.i.d., Week 20
  CRP mean CFB (LOCF) - 24 weeks results: -20.80 mg/L
RA patients [2]; week 1
  CRP mean CFB (LOCF): -3.70 mg/L
RA patients [2]; week 12
  CRP mean CFB (LOCF): -4.43 mg/L
